Patent publication US8212016B2, “NPC1L1 orthologues” (Schering Corporation, priority 2006, dated 2012)
Where two headings read alike, the source gives them in different places.

What was measured:
monkey NPC1L1 = monkey NPC1L1 (Macaca mulatta, UniProt A0MJA5); experiment: Fluorescence NPC1L1 binding assay, HEK-293 cells, BODIPY-labeled compound 1; set-up: species or system rhesus monkey
Description: (§1) Cell Culture and Membrane Preparation. Each plasmid pCR3.1 harboring NPC1L1 was prepared using standard molecular biology protocols. Stable cell lines expressing human, rhesus monkey, mouse, rat, hamster, canine or rabbit NPC1L1 were generated using Lipofectamine 2000 transfection reagent in HEK-293 cells according to the manufacturer's protocol. Cells were maintained in DMEM supplemented with 10% FBS, 100 U/ml pen/strep, and 500 μg/ml geneticin at 37° C., 5% CO2. All cell culture reagents were obtained from Invitrogen Life Technologies, (Carlsbad, Calif.). Cell membranes were prepared by lysing cells in 5 mM HEPES with protease inhibitors (Complete™ Protease Inhibitor Cocktail Tablets; Roche Diagnostics Corp., Indianapolis Ind.) for 15 min at 4° C. A membrane pellet was obtained by centrifuging the cell lysates at 12,000×g for 25 min. The membranes were resuspended in 5 mM HEPES with protease inhibitors and triturated with a 21G needle.
(§2) Fluorescence. Cells were plated into 384-well black/clear plates (BD Biosciences, Bedford Mass.) for binding experiments the following day. The media was aspirated. […] Media (20 μl) containing the indicated concentration of compound was then added to the wells. […] The binding reaction was allowed to proceed for 4 hours at 37° C. Subsequently the media was aspirated and the cells washed once with PBS.

mouse NPC1L1 = biological target: T1, mouse NPC1L1 (Mus musculus, UniProt Q6T3U4, N476K); experiment: Fluorescence NPC1L1 binding assay, HEK-293 cells, fluorescent compound 2 as ligand
T1 construct: expressed in transfected cells
Description: as §1, §2
In an effort to show binding to mouse NPC1L1, several related ezetimibe analogs were examined as possible alternatives to fluorescently-labeled (BODIPY) ezetimibe glucuronide (compound 1) in the binding assay. Compound 2, which is a fluorescently labeled synthetic precursor for fluorescently-labeled (BODIPY) ezetimibe glucuronide (compound 1; Burnett et al., Bioorganic and Medicinal Chemistry Letters 12:315-318 (2002)), was identified as a viable option for detection of mouse NPC1L1 binding. Compound 2 contains a methyl ester substitution for the carboxylic acid on the glucuronide portion of the molecule (compound structures shown in FIG. 4A).

[1] = system: plasma and liver cholesterol; experiment: Percent cholesterol lowering in plasma and liver; format: in vivo; conditions: hamster
[2] = system: ^14C-cholesterol absorption; experiment: Acute cholesterol absorption assay; format: in vivo; conditions: rat, intraduodenal; read-out: rat ED50, inhibition of cholesterol absorption
Description: Acute cholesterol absorption assay. ^14C-cholesterol absorption was determined acutely in rats using conditions previously described (Van Heek et al., J. Pharmacol. Exp. Ther. 283: 157-163 (1997)). Compounds were dissolved in rat bile and delivered (1.0 ml) intraduodenally by bolus injection via an intestinal catheter, followed by 1.0 ml saline rinse (0.9%). Following a 30 min incubation, a cholesterol emulsion containing 3 mg cholesterol and 2 μCi ^14C-cholesterol (3 ml) was delivered to each rat as a bolus via intestinal catheter, followed by 1 ml saline rinse. Animals were sacrificed 90 min later and ^14C-cholesterol levels in plasma, liver, intestinal contents, and intestinal wall were determined.

O=C(O)[C@H]1O[C@@H](Oc2ccc([C@@H]3[C@@H](CC[C@H](O)c4ccc(F)cc4)C(=O)N3c3ccc(F)cc3)cc2)[C@H](O)[C@@H](O)[C@@H]1O [compound 4, glucuronidated ezetimibe]
Ki (monkey NPC1L1; Monkey NPC1L1, competition with compound 1, read-out: Ki): 0.092 µM
difference in affinity versus ezetimibe (compound 3) (monkey NPC1L1; monkey NPC1L1): ~10 fold
Ki (mouse NPC1L1; Mouse NPC1L1, competition with compound 2, read-out: Ki): 9 µM
Ki (mouse NPC1L1; Table 3, Mouse, read-out: Ki Mouse NPC1L1): 5.4 µM
cholesterol lowering Liver ([1]; liver): 92%
cholesterol lowering Plasma ([1]; plasma): 48%
ED50 [2]: 1.9 µg/kg
